Results published in US20170218449A1, “ANALYTICAL METHODS AND ARRAYS FOR USE IN THE SAME” (SENZAGEN AB, priority 2010, published 2017).
Values after ≈ are worked out from the molar mass of the structure shown.

tested on: MUTZ-3 cells; assay: cytotoxicity by Propidium Iodide, relative viability (Rv90); details: concentration yielding 90% relative viability, PI staining
Procedure: A panel of chemicals consisting of 20 sensitizers and 20 non-sensitizers were used for cell stimulations. […] All chemicals were from Sigma-Aldrich, St. Louis, Mo., USA. Compounds were dissolved in either Dimethyl sulfoxide (DMSO) or distilled water. Prior to stimulations, the cytotoxicity of all compounds were monitored, using Propidium Iodide (PI) (BD Biosciences, San Diego, Calif.) using protocol provided by the manufacturer. The relative viability of stimulated cells was calculated as
For toxic compounds, the concentration yielding 90% relative viability (Rv90) was used. For untoxic compounds, a concentration of 500 μM was used when possible. For non-toxic compounds that were insoluble at 500 μM in medium, the highest soluble concentration was used. For compounds dissolved in DMSO, the in-well concentration was 0.1% DMSO.

| SMILES | Rv90 [µM] |
| --- | --- |
| O=[N+]([O-])c1ccc(Cl)c([N+](=O)[O-])c1 [2,4-Dinitrochlorobenzene] | 4 |
| Nc1ccccc1O [2-Aminophenol] | 100 |
| C=CC(=O)OCCO [2-Hydroxyethyl acrylate] | 100 |
| O=CC=O [Glyoxal] | 300 |
| CCCCCCCCCCCCOS(=O)(=O)[O-].[Na+] [Sodium dodecyl sulphate] | 200 |
| Nc1ccc(N)cc1 [p-Phenylendiamine] | 75 |

same assay, conditions: human

| SMILES | Rv90 [µM] |
| --- | --- |
| O=CC=Cc1ccccc1 [Cinnamaldehyde] | 120 |
| C=CCc1ccc(O)c(OC)c1 [Eugenol] | 300 |
| C=O [Formaldehyde] | 80 |
| CC=Cc1ccc(O)c(OC)c1 [Isoeugenol] | 300 |

tested on: human; assay: not given; details: in vivo; cited from earlier work

| SMILES | HMT |
| --- | --- |
| O=CC=Cc1ccccc1 [Cinnamaldehyde] | + |

tested on: MUTZ-3 cells; assay: transcriptional profiling (Affymetrix Human Gene 1.0 ST arrays) with PCA of chemically stimulated cells; type: cell-based; details: not given

| SMILES | PCA grouping, 1137 genes (comparing the different stimulations), FIG. 3D | PCA grouping, 1010 transcripts (sensitizing vs. non-sensitizing ANOVA), FIG. 3B |
| --- | --- | --- |
| Nc1ccccc1O [2-Aminophenol] | replicates that group together, separate from the negative group | – |
| Oc1ccccc1 [Phenol] | – | tend to group with the sensitizers |
| [K+].[K+].[O]=[Cr](=[O])([O-])[O][Cr](=[O])(=[O])[O-] [Potassium dichromate] | discrete profile | – |

same assay, conditions: 24 h stimulation, one or more replicate

| SMILES | PCA grouping, 1010 transcripts (sensitizing vs. non-sensitizing ANOVA), FIG. 3B |
| --- | --- |
| NCCN [Ethylendiamine] | group together with the control group |
| C=CCc1ccc(O)c(OC)c1 [Eugenol] | group together with the control group |
| O=CC=O [Glyoxal] | group together with the control group |
| CCCCCCC(C=O)=Cc1ccccc1 [Hexylcinnamic aldehyde] | group together with the control group |
| CC=Cc1ccc(O)c(OC)c1 [Isoeugenol] | group together with the control group |
| CCCCCCCC(=O)O [Octanoic acid] | tend to group with the sensitizers |
| CC1(C)S[C@@H]2[C@H](NC(=O)Cc3ccccc3)C(=O)N2[C@H]1C(=O)O [Penicillin G] | group together with the control group |
| Oc1cccc(O)c1 [Resorcinol] | group together with the control group |
| CCCCCCCC/C=C\CCCCCCCC(=O)OCCOCC(OCCO)C1OCC(OCCO)C1OCCO (centres unmarked) [Tween 80] | tend to group with the sensitizers |

same assay, conditions: 24 h stimulation, triplicates

| SMILES | PCA grouping, 1137 genes (comparing the different stimulations), FIG. 3D |
| --- | --- |
| O=[N+]([O-])c1ccc(Cl)c([N+](=O)[O-])c1 [2,4-Dinitrochlorobenzene] | replicates that group together, separate from the negative group |
| C=CC(=O)OCCO [2-Hydroxyethyl acrylate] | replicates that group together, separate from the negative group |
| Sc1nc2ccccc2s1 [2-Mercaptobenzothiazole] | replicates that group together, separate from the negative group |
| Nc1ccc(N)c([N+](=O)[O-])c1 [2-nitro-1,4-Phenylendiamine] | replicates that group together, separate from the negative group |
| OC/C=C/c1ccccc1 [Cinnamic alcohol] | replicates that group together, separate from the negative group |
| Oc1cccc(O)c1 [Resorcinol] | replicates that group together, separate from the negative group |
| Nc1ccc(N)cc1 [p-Phenylendiamine] | replicates that group together, separate from the negative group |

tested on: CD86; assay: CD86 cell surface expression by flow cytometry after chemical stimulation; type: cell-based, human; details: 24 h stimulation, frequency of CD86-positive cells, paired Student's t test
Procedure: Cell surface expression levels of CD86 were monitored after stimulation with chemicals for 24 h. FIG. 2A). Chemical-induced upregulation of CD86, in terms of changes in frequency of positive cells, were determined by flow cytometry, as exemplified by the comparison of 2-aminophenol-stimulated cells (right dotplot) and unstimulated controls (left dotplot). Results are shown from one representative experiment out of three. Gates were set to exclude debris and dead cells, and quadrants were established by comparing with relevant isotype controls. FIG. 2B) Compilation of frequencies of CD86-positive cells after 24 h of stimulation. Statistical analysis was performed using paired Student's t test. *p<0.05, # p<0.01. NA, not analysed.
CD86 is the most extensively studied biomarker for sensitization to date, in cell-systems such as monocyte derived dendritic cells (MoDCs) or dendritic cell-like human cell lines and their progenitors, such as THP-1, U-937 and KG-1. Thus, as a reference, cell surface expression of CD86 was measured with flow cytometry after 24h stimulation with 20 sensitizers and 20 non-sensitizers, as well as with vehicle controls (Table 1). […]. […] Consequently, CD86 cannot classify skin sensitizers, using a cell based system such as MUTZ-3.
The human myeloid leukaemia-derived cell line MUTZ-3 (DSMZ, Braunschweig, Germany) was maintained in a-MEM (Thermo Scientific Hyclone, Logan, Utah) supplemented with 20% (volume/volume) fetal calf serum (Invitrogen, Carlsbad, Calif.) and 40 ng/ml rhGM-CSF (Bayer HealthCare Pharmaceuticals, Seattle, Wash.), as described. Prior to each experiment, the cells were immunophenotyped using flow cytometry as a quality control. Cells were seeded in 6-well plates at 200.000 cells/ml. Stock solutions of each compound was prepared in either DMSO or distilled water, and were subsequently diluted so the in-well concentrations corresponded to the Rv90 value, and in-well concentrations of DMSO were 0.1%. Cells were incubated for 24h at 37° C. and 5% CO2. Thereafter, cells were harvested and analysed with flow cytometry. In parallel, harvested cells were lysed in TRIzol reagent (Invitrogen) and stored at −20° C. until RNA extraction. Stimulations with chemicals were performed in three individual experiments, so that triplicates samples were obtained.
All cell surface staining and washing steps was performed in PBS containing 1% BSA (w/v). Cells were incubated with specific mouse mAbs for 15 min at 4° C. The following mAbs were used for flow cytometry: FITC-conjugated CD1a (DakoCytomation, Glostrup, Denmark), CD34, CD86, and HLA-DR (BD Biosciences), PE-conjugated CD14 (DakoCytomation), CD54 and CD80 (BD Biosciences). Mouse IgG1, conjugated to FITC or PE were used as isotype controls and PI was used to assess cell viability (BD Biosciences). FACSDiva software was used for data acquisition with FACSCanto II instrument (BD Bioscience). 10,000 events were acquired and gates were set based on light scatter properties to exclude debris and nonviable cells. Further data analysis was performed using FCS Express V3 (De Novo Software, Los Angeles, Calif.).

| SMILES | CD86 cell surface expression |
| --- | --- |
| O=[N+]([O-])c1ccc(Cl)c([N+](=O)[O-])c1 [2,4-Dinitrochlorobenzene] | significantly up-regulated |
| Nc1ccccc1O [2-Aminophenol] | significantly up-regulated |
| C=CC(=O)OCCO [2-Hydroxyethyl acrylate] | significantly up-regulated |
| Sc1nc2ccccc2s1 [2-Mercaptobenzothiazole] | significantly up-regulated |
| Nc1ccc(N)c([N+](=O)[O-])c1 [2-nitro-1,4-Phenylendiamine] | significantly up-regulated |
| O=CC=Cc1ccccc1 [Cinnamaldehyde] | significantly up-regulated |
| Oc1cccc(O)c1 [Resorcinol] | significantly up-regulated |
| Nc1ccc(N)cc1 [p-Phenylendiamine] | significantly up-regulated |

tested on: not listed separately; assay: Max solubility in medium; details: vehicle DMSO or water

| SMILES | Max solubility [µM] |
| --- | --- |
| O=Cc1ccccc1 [Benzaldehyde] | 250 |

tested on: human; assay: not given; details: in vivo; cited from earlier work; remark: another data set of the same source

| SMILES | HPTA |
| --- | --- |
| O=CC=Cc1ccccc1 [Cinnamaldehyde] | + |

tested on: not listed separately; assay: physchem; details: plasma or biological fluid, kinetic from dmso stock

| SMILES | solubility [µM] |
| --- | --- |
| Nc1ccc(N)cc1 [p-Phenylendiamine] | 566 (≈ 61.2 µg/mL) |

tested on: draining lymph nodes of mice; assay: not given; details: mouse, in vivo; cited from earlier work

| SMILES | Potency |
| --- | --- |
| C=O [Formaldehyde] | Strong [15] |
| O=CC=O [Glyoxal] | Moderate [27] |
| CCO/C=C1\N=C(c2ccccc2)OC1=O [Oxazolone] | Extreme [15] |

same assay, conditions: sensitizing potency category based on murine LLNA classification; cited from earlier work

| SMILES | Potency |
| --- | --- |
| O=[N+]([O-])c1ccc(Cl)c([N+](=O)[O-])c1 [2,4-Dinitrochlorobenzene] | Extreme [15] |
| Nc1ccccc1O [2-Aminophenol] | Strong [27] |
| Sc1nc2ccccc2s1 [2-Mercaptobenzothiazole] | Moderate [27] |
| OC/C=C/c1ccccc1 [Cinnamic alcohol] | Weak [27] |
| NCCN [Ethylendiamine] | Moderate [14] |
| C=CCc1ccc(O)c(OC)c1 [Eugenol] | Weak [28] |
| CCCCCCC(C=O)=Cc1ccccc1 [Hexylcinnamic aldehyde] | Moderate [15] |
| CC=Cc1ccc(O)c(OC)c1 [Isoeugenol] | Moderate [28] |
| CC1(C)S[C@@H]2[C@H](NC(=O)Cc3ccccc3)C(=O)N2[C@H]1C(=O)O [Penicillin G] | Weak [28] |
| [K+].[K+].[O]=[Cr](=[O])([O-])[O][Cr](=[O])(=[O])[O-] [Potassium dichromate] | Extreme [14] |
| Oc1cccc(O)c1 [Resorcinol] | Moderate [29] |
| Nc1ccc(N)cc1 [p-Phenylendiamine] | Strong [28] |
